Results on two compounds are retold here after PMC12292835, “Amylin Receptor 1 Mutagenesis Revealed a Potential Role of Calcitonin Serine 29 in Receptor Interaction” (Biomedicines, 2025).

The target of experiment [1] is T1, amylin receptor 1 ECD with calcitonin receptor N135A mutation (Homo sapiens, UniProt O60894+P30988, N135A).
T1 construct: pHLsec/hRAMP1.24–111-(GSA)3-hCTR.34–141.N135A-H6 (D-pJW001); H6 (hexahistidine) (C); made in house; host or cells: HEK293 (transient transfection, secreted, N-glycosylated)
T1 sequence (O60894 24-111): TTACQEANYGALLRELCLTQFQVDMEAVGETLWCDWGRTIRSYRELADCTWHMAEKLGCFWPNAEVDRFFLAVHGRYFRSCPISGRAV
T1 sequence (P30988 34-141 N135A): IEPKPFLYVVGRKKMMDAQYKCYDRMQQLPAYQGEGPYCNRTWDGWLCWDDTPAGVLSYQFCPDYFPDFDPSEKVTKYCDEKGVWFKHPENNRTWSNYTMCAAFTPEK
The experiment is described as follows: FP saturation binding, N135A. The settings on record: for Average fluorescence intensity change upon receptor ECD binding: % of a free probe intensity, Mean ± S.D., max receptor 3 μM (sCT), 1 μM (AC413); for effect of mutation on binding affinity: in words. The text has this:
pHLsec-based vectors were used to express wild-type and mutated amylin receptor 1 extracellular domains as secreted proteins to cell culture media. The plasmid DNA construct of the wild-type amylin receptor 1 extracellular domain, pHLsec/hRAMP1.24–111-(GSA)3-hCTR.34–141-H6 (H-pSL005) was previously described. The following DNA vector plasmids were made for this study: pHLsec/hRAMP1.24–111-(GSA)3-hCTR.34–141.D97A-H6 (D-pSL009), pHLsec/hRAMP1.24–111-(GSA)3-hCTR.34–141.D97E-H6 (D-pJS001), pHLsec/hRAMP1.24–111-(GSA)3-hCTR.34–141.D101A-H6 (D-pJJ003), pHLsec/hRAMP1.24–111-(GSA)3-hCTR.34–141.D101E-H6 (D-pJJ002), pHLsec/hRAMP1.24–111-(GSA)3-hCTR.34–141.E123A-H6 (D-pJJ004), pHLsec/hRAMP1.24–111-(GSA)3-hCTR.34–141.E123D-H6 (D-pJJ001), pHLsec/hRAMP1.24–111-(GSA)3-hCTR.34–141.N124A-H6 (D-pJS005), pHLsec/hRAMP1.24–111-(GSA)3-hCTR.34–141.N124D-H6 (D-pJS006), pHLsec/hRAMP1.24–111-(GSA)3-hCTR.34–141.N135A-H6 (D-pJW001), and pHLsec/hRAMP1.24–111-(GSA)3-hCTR.34–141.N135D-H6 (D-pJS002). The mutations were introduced to the calcitonin receptor extracellular domain by using DNA Assembly reaction. Coding sequences of the receptor expression vectors were confirmed with Sanger sequencing by Bionics (Seoul, Republic of Korea). DNA plasmid vectors were extracted and were purified from bacterial cells with NucleoBond® Extra Midi Plus kit (Macherey-Nagel, Germany). The purified DNA vectors were stored at −20 °C until their use for mammalian cell transfection.
The overall experimental procedure of reconstituting the functional amylin receptor 1 extracellular domain (ECD) as the fusion protein of RAMP1 ECD and the calcitonin receptor ECD was previously described. The wild-type and mutated amylin receptor 1 ECDs were expressed from HEK293 cells with transient transfection with polyethylenimine. The expressed receptor proteins were secreted to cell culture media for 4 days at 37 °C. The media were collected for the receptor protein purification. Initial dialysis was performed with the dialysis buffer (Tris 25 mM (pH 7.4), NaCl 150 mM, and imidazole 10 mM) overnight. […] Then, a size exclusion column chromatography (SEC) was performed with SEC column (Cytiva, HiLoad® 16/600 Superdex® 200 pg) and SEC buffer (Tris 50 mM (pH 7.4), NaCl 150 mM, and glycerol (v/v) 10%) as previously described. As the final step, the purified receptor proteins were dialyzed to storage buffer (HEPES 25 mM (pH 7.4), NaCl 150 mM, and glycerol (v/v) 50 %) and were stored at −60 °C until their use for the receptor–ligand binding assay. […]
The overall procedure of the FP binding assay with a saturation binding format was previously described. […] FITC-labeled peptide probes were incubated for 1 h at room temperature with the purified receptor protein prior to fluorescence signal measurement. […]

Experiment [2] has as its system receptor ECD. The settings on record: receptor ECD binding; cited from earlier work. How it is done: The salmon calcitonin C-terminal fragment was reported to have micromolar affinity (KI 1~3 μM) both for calcitonin and amylin receptor ECDs. The fluorescein isothiocyanate (FITC)-labeled salmon calcitonin fragment (FITC-sCT(22–32)) was used as a peptide probe for the receptor–ligand binding assay in the current study. FITC addition to the N-terminus of an amylin receptor antagonistic peptide AC413(6–25) Y25P was previously shown to increase the peptide affinity for receptor ECD binding by more than 10-fold. Based on the binding affinity of FITC-sCT(22–32) measured in the current ...

Where a SMILES comes first, the peptide text is derived from it. The star is where a group is joined. FITC = O=C1OC2(c3ccc(O)cc3Oc3cc(O)ccc32)c2ccc(NC(=S)*)cc21

Regarding `CC(C)C[C@H](NC(=O)[C@H](CCCNC(=N)N)NC(=O)[C@@H](NC(=O)[C@H](CC(C)C)NC(=O)[C@H](Cc1ccccc1)NC(=O)[C@H](CC(N)=O)NC(=O)[C@H](C)NC(=S)Nc1ccc2c(c1)C(=O)OC21c2ccc(O)cc2Oc2cc(O)ccc21)C(C)C)C(=O)N[C@@H](CCC(N)=O)C(=O)N[C@H](C(=O)N[C@@H](Cc1ccc(O)cc1)C(=O)N1CCC[C@H]1C(=O)N[C@@H](CCCNC(=N)N)C(=O)N[C@H](C(=O)N[C@@H](CC(N)=O)C(=O)N[C@H](C(=O)NCC(=O)N[C@@H](C)C(=O)N[C@@H](CC(N)=O)C(=O)N[C@H](C(=O)N1CCC[C@H]1C(N)=O)[C@@H](C)O)C(C)C)[C@@H](C)O)[C@@H](C)O` [FITC-AC413(6–25) Y25P] ({FITC}-ANFLVRLQTYPRTNVGANTP-NH2; C-terminus assumed), in experiment [1], the “Average fluorescence intensity change upon receptor ECD binding” value was found to be 87 ± 15% and the “effect of mutation on binding affinity” value is listed as “markedly decreased the binding affinity”. Further, the “increase of peptide affinity by FITC addition to the N-terminus” value in experiment [2] was “more than 10 fold”.

With `C[C@@H](O)[C@H](NC(=O)[C@H](CC(N)=O)NC(=O)[C@@H](NC(=O)[C@H](CCCNC(=N)N)NC(=O)[C@@H]1CCCN1C(=O)[C@H](Cc1ccc(O)cc1)NC(=S)Nc1ccc2c(c1)C(=O)OC21c2ccc(O)cc2Oc2cc(O)ccc21)[C@@H](C)O)C(=O)NCC(=O)N[C@@H](CO)C(=O)NCC(=O)N[C@H](C(=O)N1CCC[C@H]1C(N)=O)[C@@H](C)O` [FITC-sCT(22–32)] ({FITC}-YPRTNTGSGTP-NH2; C-terminus assumed), in experiment [1], the “Average fluorescence intensity change upon receptor ECD binding” value is recorded as 81 ± 10% and the “effect of mutation on binding affinity” value is reported as “markedly decreased the binding affinity”.
